The test system of series [1] is MDA-MB-231 breast cancer cells. Briefly: MTS cell viability assay with UV-A irradiation. Type of series: cell-based. The procedure: (§1) MDA-MB-231 breast cancer cells were plated at 10,000 cells/well on three 96 well plates. After 24 hours incubation at 37° C., varying concentrations of MA-3 and MA-4 were added and incubated for 1 hour at 37° C. on only two plates (pre-UV and no UV exposure). One plate with cells were then left at room temperature covered for 30 min (no UV). The second plate (pre-UV) and the third plate (post-UV) were exposed to UV-A in a Luzchem photoreactor with 8 LZC-UVA lamps for 30 min. Varying concentrations of MA-3 and MA-4 were added to post UV exposure plate after irradiation. Plates were then incubated for 24 hours at 37° C. and then a MTS cell viability assay (Promega) was performed. Cell viability assay was run on a Flexstation3 mulitmode plate reader and percent viability was calculated. Statistical analyses were performed using GraphPad Prism program.
On the technique in general: Tetrazolium assays rely on reduction of a dye to a coloured formazan, in cell work by metabolically active cells.

A short description of series [2]: Deoxygenation of sulfoxide to sulfide on UV-A exposure in plate well, HPLC. Type of series: physicochemical. The conditions noted are these: for Sulfide (MA-4) Concentration: addition of drug pre-UV exposure, n = 4; for Sulfide Concentration 30 Minutes After UV Exposure: Table 3. As to the method: as §1
The concentrations were determined using HPLC injections on Agilent Technologies 1200 series HPLC—quaternary pump. The experiment was carried out in two trials consisting of duplicate studies.

Take `CC(=O)OCc1ccc2c(c1)c1cc(COC(C)=O)ccc1[s+]2[O-]` [MA-3, 5-oxo-2,8-diacetoxymethyldibenzothiophene]: the “% cell viability” value was “decreases % cell viability” in series [1] (compound added pre-UV exposure, cells irradiated with UV-A) and “a decrease in % cell viability” in series [1] (compound added pre-UV exposure, cells irradiated with UV-A, listed as 5-oxo-2,8-diacetoxymethyldibenzothiophene). Also, the “Sulfide (MA-4) Concentration” value in series [2] (Concentration of MA-3 10 μM) came to 9.653 ± 0.170 µM; in series [2] (Concentration of MA-3 100 μM), 90.02 ± 4.87 µM. Besides, the “Sulfide Concentration 30 Minutes After UV Exposure” value in series [2] (starting concentration 100 μM) is 90 ± 3 µM.
Take `O=S(=O)(Oc1ccccc1)c1ccc2c(c1)c1cc(-c3ccc(-c4ccccc4)cc3)ccc1[s+]2[O-]` (stereo not shown) [Compound 5a]: in series [2] (starting concentration 10 μM), the “Sulfide Concentration 30 Minutes After UV Exposure” value is 3.3 ± 1.4 µM.
As to `CC(=O)OCc1ccc2sc3ccc(COC(C)=O)cc3c2c1` [MA-4], the “% cell viability” value in series [1] (any of the UV-exposure conditions (no UV, pre-UV, post-UV)) is “did not decrease % cell viability”.

Values taken from patent publication US11890268B2, “Dibenzothiophene derivatives and methods of treating cancer therewith” (Saint Louis University, priority 2018, dated 2024).
